These results are taken from US20200323833A1, “HYDROPHOBIC ACID ADDITION SALTS” (Theracaine LLC, priority 2017, published 2020).

A short description of series [1]: Pharmacokinetics of dry powder administered subcutaneously via dorsal incision (Example 5). Format: in vivo, Sprague Dawley rats. The following applies: dry powder 230, via dorsal incision, bupivacaine salt 149 vs lidocaine salt 226 mg/kg. As to the method: Terminal collections were performed via vena cava.
The test articles were drug compositions designated as Test Articles A and B, which were administered as a single subcutaneous dose via dorsal incision to female CD (Sprague Dawley) rats.
(§1) Ten (10) female, jugular vein catheterized (JVC) CD rats initially were assigned to two dose groups consisting of five animals per group.
(§2) Each test article was provided as a powder in an individual vial.

Series [2] relates to female Sprague Dawley (CD) rats. The following applies: rat, in vivo, sc.
Method: (§3) Clinical observations were performed daily. […] Other characteristics observed included appearance of skin and fur, appearance of eyes and mucous membranes, urine and fecal output, and changes in locomotor behavior. The times of observation were approximately the same each day, and the date of each observation was recorded.
Animals were euthanized at the end of the study via carbon dioxide inhalation (CO2) followed by thoracotomy. Gross necropsy of the dose sites were performed and they were collected for histopathology. Photographs were taken for any observation of tissue or reaction to treatment. Carcasses were discarded without further examination.
Twenty (20) female, jugular vein catheterized (JVC) Sprague Dawley (CD) rats initially were assigned to four dose groups consisting of eight (Test Articles A and B) or two (Test Articles B and C) animals per group. The animals received a single subcutaneous dose of the test article delivered to the dorsal subcutaneum of the animals via a dorsal skin incision.
Test articles were provided as a powder in individual vials (Test Articles A and B), or as a solution (Test Articles C and D). On the day of testing, each animal's dose was individually calculated, weighed or measured, and recorded. […]
The test system of series [3] is female CD (Sprague Dawley) rats. The following applies: rat, in vivo. As to the method: Clinical observations were performed daily.
as §1, §2

The test system of series [4] is female Sprague-Dawley rats. The following applies: rat, in vivo, sc.
Method: as §3
The vehicle was a hyaluronic acid vehicle. The animals received a single subcutaneous dose of the test article or vehicle delivered to the dorsal area of the animals.
In addition, dose sites were exposed for gross evaluation of residual test articles and local response to the injected materials.

Structures are written as SMILES. Counter-ions that a name gives are not always drawn.

For the compound `CCCCN1CCCCC1C(=O)Nc1c(C)cccc1C` (stereo not drawn) [Test Article B, Bupivacaine tridecafluorohexane-sulfonate salt 230], the “Cmax compared to the lidocaine particles” value in series [1] was “lower”. Further, the “duration of release compared to the lidocaine particles” value in series [1] (listed as bupivacaine particles) is reported as “longer”; in series [1] (listed as bupivaciane particles), “significantly longer”.

For the compound `CCN(CC)CC(=O)Nc1c(C)cccc1C.O=S(=O)(O)C(F)(F)C(F)(F)C(F)(F)C(F)(F)C(F)(F)C(F)(F)C(F)(F)C(F)(F)F` [Test Article B], in series [2], the “vascularization surrounding the incision sites on the subcutaneous skin layers” value is listed as “slight to moderate”. Moreover, the “tolerability of single subcutaneous dose administered through a dorsal incision” value in series [3] is reported as “tolerated”. Further, in series [4], the clinical observations result was “slightly dehydrated and hypoactive”.
